The source of these data is US20250195530A1, “POLQ INHIBITORS” (ASTRAZENECA AB, priority 2022, published 2025).

Read-outs that look alike come from different tables or passages of the source.

The test relates to DLD-1 BRCA2−/− cells. Nature of the test: Homologous recombination synthetic lethal inhibition of proliferation, DLD-1 BRCA2-/- (Cell Titre Glo 3D). The conditions noted are these: for IC50: Homo sapiens; for POLQ PD Prolif Lumin: DLD-1 BRCA2-/- proliferation. Format: cell-based. Summed up:
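DLD-1 BRCA2−/− and parental DLD-1 cells exposed to 10-point dose range (10 μM to 0.51 nM, 3-fold) in RPMI/10% FBS at 37 °C, with medium and compound replenished on day 6. Viability by Cell Titre Glo 3D luminescence at day 7 (DLD-1) or day 12 (BRCA2−/−); IC50 as concentration halving maximum signal.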

Setting [1] is: DLD-1, first proliferation column (c5), taken as DLD-1 BRCA2-/-, read-out: POLQ PD Prolif Lumin (converted).
Where [2] appears, read: DLD-1, DLD-1 BRCA2 −/− cells, mean, read-out: POLQ PD Prolif Lumin BRCA2 −/− mean pIC50 (converted).
[3] abbreviates: DLD-1, first proliferation column, DLD-1 BRCA2-/-, read-out: POLQ PD Prolif Lumin (converted).
Setting [4] is: DLD-1, proliferation, luminescence, taken as DLD-1 BRCA2-/-, read-out: POLQ PD Prolif Lumin (converted).
Setting [5] is: DLD-1, first proliferation column (c5), DLD-1 BRCA2-/-, read-out: POLQ PD Prolif Lumin (converted).

With `CC1(Oc2ncnc3c2nc(-c2ccc(OCCN4CCNCC4)cc2Cl)n3Cc2ncccc2F)CC1` [Example T351, 8-(2-chloro-4-(2-(piperazin-1-yl)ethoxy)phenyl)-9-((3-fluoropyridin-2-yl)methyl)-6-(1-methylcyclopropoxy)-9H-purine], the IC50 under setting [1] is 3160 nM.

With `CC1(Oc2ncnc3c2nc(-c2ccc(OCCC(=O)O)cc2Cl)n3Cc2ccccc2Cl)CC1` [Example T88, 3-(3-chloro-4-(9-(2-chlorobenzyl)-6-(1-methylcyclopropoxy)-9H-purin-8-yl)phenoxy)propanoic acid], the IC50 under setting [2] was 794 nM.

For the compound `Cc1ccnc(Cn2c(-c3ccc(OCCC4(O)COC4)cc3Cl)nc3c(OC4(C)CC4)ncnc32)c1` [Example T334, 3-(2-(3-chloro-4-(6-(1-methylcyclopropoxy)-9-((4-methylpyridin-2-yl)methyl)-9H-purin-8-yl)phenoxy)ethyl)oxetan-3-ol], the IC50 under setting [1] is 251 nM.

In the case of `Cc1ccnc(Cn2c(-c3ccc(C(=O)N4C[C@@H](O)[C@H](F)C4)cc3Cl)nc3c(OC4(C)CC4)ncnc32)c1` [Example T282, (3-chloro-4-(6-(1-methylcyclopropoxy)-9-((4-methylpyridin-2-yl)methyl)-9H-purin-8-yl)phenyl)((3R,4R)-3-fluoro-4-hydroxypyrrolidin-1-yl)methanone], the IC50 (DLD-1, DLD-1 BRCA2-/- proliferation, column head only partly shown, read-out: POLQ PD Prolif Lumin (converted)) is 2510 nM.

As for `Cc1ccnc(Cn2c(-c3ccc(CC(=O)N4CC(N5CCC5)C4)cc3Cl)nc3c(OC4(C)CC4)ncnc32)c1` [Example T603, 1-([1,3′-biazetidin]-1′-yl)-2-(3-chloro-4-(6-(1-methylcyclopropoxy)-9-((4-methylpyridin-2-yl)methyl)-9H-purin-8-yl)phenyl)ethan-1-one], the IC50 under setting [3] was 794 nM.

Turning to `Cc1ccnc(Cn2c(-c3ccc(OCC(=O)NC4CC(O)C4)cc3Cl)nc3c(OC4(C)CC4)ncnc32)c1` (stereo not drawn) [Example T479, 2-(3-chloro-4-(6-(1-methylcyclopropoxy)-9-((4-methylpyridin-2-yl)methyl)-9H-purin-8-yl)phenoxy)-N-(3-hydroxycyclobutyl)acetamide], the IC50 under setting [4] is 398 nM.

For the compound `Cc1nnccc1Cn1c(-c2ccc(CC(N)=O)cc2Cl)nc2c(OC3(C)CC3)ncnc21` [Example T17, 2-(3-chloro-4-(6-(1-methylcyclopropoxy)-9-((3-methylpyridazin-4-yl)methyl)-9H-purin-8-yl)phenyl)acetamide], the IC50 under setting [2] is above 10000 nM.

Turning to `Cc1ccnc(Cn2c(-c3ccc(OCC(=O)N4CC[C@@H](C#N)C4)cc3Cl)nc3c(OC4(C)CC4)ncnc32)c1` [Example T538, (R)-1-(2-(3-chloro-4-(6-(1-methylcyclopropoxy)-9-((4-methylpyridin-2-yl)methyl)-9H-purin-8-yl)phenoxy)acetyl)pyrrolidine-3-carbonitrile], the IC50 under setting [5] is 501 nM.

Turning to `Cc1ccnc(Cn2c(-c3ccc(C(=O)NC[C@H](C)F)cc3Cl)nc3c(OC4(C)CC4)ncnc32)c1` [Example T190, (S)-3-chloro-N-(2-fluoropropyl)-4-(6-(1-methylcyclopropoxy)-9-((4-methylpyridin-2-yl)methyl)-9H-purin-8-yl)benzamide], the IC50 under setting [5] is 398 nM.

Regarding `Cc1ccnc(Cn2c(-c3ccc(OCCCO)cc3Cl)nc3c(OC4(C)CC4)ncnc32)c1` [Example T124, 3-(3-chloro-4-(6-(1-methylcyclopropoxy)-9-((4-methylpyridin-2-yl)methyl)-9H-purin-8-yl)phenoxy)propan-1-ol], under setting [5], the IC50 is 79.4 nM.

In the case of `CC1(Oc2ncnc3c2nc(-c2ccc(CC(N)=O)cc2Cl)n3Cc2cccc(F)c2)CC1` [Example T42, 2-(3-chloro-4-(9-(3-fluorobenzyl)-6-(1-methylcyclopropoxy)-9H-purin-8-yl)phenyl)acetamide], the IC50 under setting [2] is 158 nM.

As to `Cc1ccnc(Cn2c(-c3ccc(O[C@@H]4CCN(C(N)=O)C4)cc3Cl)nc3c(OC4(C)CC4)ncnc32)c1` [Example T344, (R)-3-(3-chloro-4-(6-(1-methylcyclopropoxy)-9-((4-methylpyridin-2-yl)methyl)-9H-purin-8-yl)phenoxy)pyrrolidine-1-carboxamide], the IC50 under setting [1] was 2000 nM.

On to `CC1(Oc2ncnc3c2nc(-c2cccc(O[C@H]4C[C@H](C(=O)O)C4)c2Cl)n3Cc2cccc(Cl)c2)CC1` [Example T256, (1r,3r)-3-(2-chloro-3-(9-(3-chlorobenzyl)-6-(1-methylcyclopropoxy)-9H-purin-8-yl)phenoxy)cyclobutane-1-carboxylic acid], for which the “POLQ PD Prolif Lumin” value (column head only partly shown) worked out at 6.9.

Regarding `Cc1noc(C)c1Cn1c(-c2ccc(CC(N)=O)cc2Cl)nc2c(OC3(C)CC3)ncnc21` [Example T27, 2-(3-chloro-4-(9-((3,5-dimethylisoxazol-4-yl)methyl)-6-(1-methylcyclopropoxy)-9H-purin-8-yl)phenyl)acetamide], the IC50 under setting [2] is above 10000 nM.

In the case of `Cc1nc(C)c(Cn2c(-c3ccc(CC(N)=O)cc3Cl)nc3c(OC4(C)CC4)ncnc32)s1` [Example T25, 2-(3-chloro-4-(9-((2,4-dimethylthiazol-5-yl)methyl)-6-(1-methylcyclopropoxy)-9H-purin-8-yl)phenyl)acetamide], the IC50 under setting [2] is 1000 nM.

For `CC1(Oc2ncnc3c2nc(-c2cccc(OCCCC(C)(C)C(=O)O)c2Cl)n3Cc2cccc(Cl)c2)CC1` [Example T565, 5-(2-chloro-3-(9-(3-chlorobenzyl)-6-(1-methylcyclopropoxy)-9H-purin-8-yl)phenoxy)-2,2-dimethylpentanoic acid], under setting [5], the IC50 was 100 nM.

For the compound `Cc1ccnc(Cn2c(-c3ccc(O[C@H]4CCN(C(=O)[C@@H](C)O)C4)cc3Cl)nc3c(OC4(C)CC4)ncnc32)c1` [Example T584, (R)-1-((S)-3-(3-chloro-4-(6-(1-methylcyclopropoxy)-9-((4-methylpyridin-2-yl)methyl)-9H-purin-8-yl)phenoxy)pyrrolidin-1-yl)-2-hydroxypropan-1-one], the IC50 under setting [3] is 794 nM.

On to `Cc1ccnc(Cn2c(-c3ccc(N4CC5CC4CCN5)cc3Cl)nc3c(OC4(C)CC4)ncnc32)c1` (racemic) [Example T491, 8-(4-(2,6-diazabicyclo[3.2.1]octan-6-yl)-2-chlorophenyl)-6-(1-methylcyclopropoxy)-9-((4-methylpyridin-2-yl)methyl)-9H-purine], for which the IC50 under setting [5] is 501 nM.

On to `CC(CCOc1ccc(-c2nc3c(OC4(C)CC4)ncnc3n2Cc2cccc(Cl)c2F)c(Cl)c1)C(=O)O` (single isomer, unassigned) [Example T271, 4-(3-chloro-4-(9-(3-chloro-2-fluorobenzyl)-6-(1-methylcyclopropoxy)-9H-purin-8-yl)phenoxy)-2-methylbutanoic acid], for which the “POLQ PD Prolif Lumin” value (column head only partly shown) worked out at 6.4.

Consider `Cc1ccnc(Cn2c(-c3ccc(C(=O)N4CCC[C@H](F)C4)cc3Cl)nc3c(OC4(C)CC4)ncnc32)c1` [Example T418, (S)-(3-chloro-4-(6-(1-methylcyclopropoxy)-9-((4-methylpyridin-2-yl)methyl)-9H-purin-8-yl)phenyl)(3-fluoropiperidin-1-yl)methanone], for which, under setting [4], the IC50 was 631 nM.

On to `Cc1ccnc(Cn2c(-c3ccc(N4CCC5(CNC5)C4)cc3Cl)nc3c(OC4(C)CC4)ncnc32)c1` [Example T490, 8-(2-chloro-4-(2,6-diazaspiro[3.4]octan-6-yl)phenyl)-6-(1-methylcyclopropoxy)-9-((4-methylpyridin-2-yl)methyl)-9H-purine], for which, under setting [5], the IC50 is 2000 nM.
